Source: PMC9890698 (BMC Biology, 2023)
Several values for one entry are separate records, joined by “and”; a condition that tells them apart may be missing. Equal values may be shown once.

Tests used:
[1] = biological target: T1, Human P2Y1-R (Homo sapiens, UniProt P47900); assay: Gαq protein activation BRET2 assay (Gαq-RLuc8/GFP2-Gγ2/Gβ1) in HEK293T cells expressing P2Y1-R; format: cell-based; parameters: ADP-modulated BRET / MRS2179-modulated BRET: unit not given here; conditions: for G protein signaling, Ligand-modulated BRET (% of maximum MRS2179 mean value): Figure 4a, individual replicates
T1 construct: expressed in transfected cells; host or cells: HEK293T/17
T1 sequence (P47900 whole entry): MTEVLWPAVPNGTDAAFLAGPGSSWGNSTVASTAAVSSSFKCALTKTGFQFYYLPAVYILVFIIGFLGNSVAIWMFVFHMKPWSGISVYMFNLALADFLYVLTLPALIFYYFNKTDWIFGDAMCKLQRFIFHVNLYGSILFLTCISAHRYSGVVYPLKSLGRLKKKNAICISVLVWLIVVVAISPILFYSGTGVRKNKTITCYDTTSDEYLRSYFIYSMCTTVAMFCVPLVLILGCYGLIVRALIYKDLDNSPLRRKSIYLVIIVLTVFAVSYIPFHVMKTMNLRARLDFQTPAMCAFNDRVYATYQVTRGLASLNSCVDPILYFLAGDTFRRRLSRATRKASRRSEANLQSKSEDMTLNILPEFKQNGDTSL
Source text: As previously described, using a BRET^2 (bioluminescence resonance energy transfer)-based assay, we directly monitored the basal Gαq protein activation by measuring the interaction between Gαq and Gγ2 subunits of the Gαqβ1γ2 heterotrimer complex. Indeed, this assay is based on the non-radiative transfer between the Renilla reniformis luciferase (RLuc8) energy donor fused to the Gαq protein subunit and the fluorescent GFP2 energy acceptor fused to Gγ2 protein subunit (Fig. 1a). […] By contrast, ligand-independent constitutive receptor activation or agonist-induced receptor activation will promote Gαq/Gγ2 subunit dissociation, thereby leading to a decrease of the basal BRET signal (Fig. 1a). […] To preclude any P2Y1-R activation by a passive release of ADP by HEK293T cells, we performed similar experiments in the presence of high concentration of apyrase (0.2U/mL) to degrade any trace of ADP in the medium (Additional File 2: Fig. S2a). Under these conditions, P2Y1-R expression still induces a marked and significant decrease of the basal BRET signal compared to control cells (pcDNA3.1), thereby supporting a P2Y1-R-dependent constitutive activation of Gαq protein. […] Of note, because P2Y1-R and AT1-R were respectively Myc- and HA-tagged and were thus detected using different primary antibodies, their expression at the cell surface cannot be compared between each other’s.
Human P2Y1-R (NCBI Reference Sequence: NM_002563.2) and P2Y12-R (NCBI Reference Sequence: NM_022788.3) were fused to double Myc epitope and rat AT1-R (NCBI Reference Sequence: NM_030985.4) to HA tag in N-terminus extracellular region. Alternatively, receptors were also fused to Venus tag in C-terminus intracellular region. Plasmids encoding Gαq-RLuc8, GFP2-Gγ2 and untagged Gβ1 were previously described. ADP was purchased from Sigma-Aldrich/Merck (Darmstadt, Germany). […] The Gq inhibitor (FR900359) was kindly supplied by Evi Kostenis (University of Bonn. Germany).
G protein activation and β-arrestin 2 recruitment were performed as previously described. Briefly, vectors encoding receptors, Gαq-RLuc8, GFP2-Gγ2, Gβ1, or β-arrestin 2 were transiently cotransfected into HEK293T/17 cells as indicated in the figure legends. Forty-eight hours after transfection, cells were washed and resuspended in PBS containing 0.1% (w/v) glucose at room temperature and then distributed (80 μg proteins/well) in a 96-well microplate (PerkinElmer). For G protein activation experiments (BRET^2), cells were incubated in the absence (basal BRET signal) or in the presence of ligand for 1 minute. BRET signal between RLuc8 and GFP2 was measured after addition of the luciferase substrate coelenterazine 400a (5 μM). For β-arrestin 2 recruitment (BRET^1), cells were stimulated with ligands for 5 or 15 min. BRET signal was recorded after incubation with coelenterazine h (5 μM) for 8 min. For kinetics studies, BRET signal between RLuc and Venus was recorded at 20-s intervals at basal state for the 2 first minutes and then for 5 min after ligand injection. For saturation curves (BRET^1), the expression level of Venus- or RLuc-tagged protein was determined by direct measurement of total fluorescence and luminescence respectively. Total fluorescence was first measured with an excitation filter at 485 nm and an emission filter at 520 nm. Then, the same sample was incubated for 8 minutes with 5 μM coelenterazine h and the total luminescence was measured. BRET^2 and BRET^1 readings were collected using a modified Infinite F500 (Tecan Group Ltd). The BRET^2 signal was calculated by the ratio of emission of GFP2 (510–540 nm) to RLuc8 (370–450 nm) and the BRET^1 signal by the ratio of emission of Venus (520–570 nm) to RLuc (370–480 nm). […]

[2] = tested on: washed human platelets (P2Y1-R/Gαq signaling); assay: IP1 accumulation assay (HTRF) in washed human platelets; format: cell-based; conditions: washed human platelets, ADP 100 μM, antagonists 10 μM, Gq inhibitor 100 nM, 2 h, apyrase 0.02 U/mL, result in words
Protocol: As performed in HEK293T cells, we thus quantified intracellular IP1 levels to monitor Gαq protein-dependent signaling pathways.
Human platelets were prepared from adult healthy volunteers free of antiplatelet or anti-inflammatory medication since at least ten days. […] After two steps of centrifugation and suspension in Tyrode’s buffer (140 mM NaCl, 5 mM KCl, 5 mM KH2PO4, 1 mM MgSO4, 10 mM HEPES, 5 mM glucose and 0.35% (w/v) BSA, pH 6,7), washed platelets were suspended in the same buffer adjusted to pH 7.4 and containing 1 mM CaCl2. The final platelet suspension was adjusted to 3.10^8 platelets/mL and rested for 45 min in the presence of 0.02 U/mL apyrase and 10 μM indomethacin at 37 °C prior experiments. PGI2 (0.5 μM) was added before centrifugation steps to avoid platelet activation.
Quantification of intracellular IP1 was performed using the HTRF (Homogeneous Time Resolved Fluorescence) IP1 competitive immunoassay (IP-One Tb kit. Cisbio. France) according to the manufacturer’s instructions. Briefly, 20,000 HEK293T/17 cells or 3.10^6 platelets were distributed in a 384-well white microplate (Greiner) and incubated with the indicated molecules for 30 min or 2 h at 37 °C in the presence of 50 mM of LiCl to prevent IP1 degradation. After addition of d2-labeled IP1 (acceptor) and anti-IP1-Cryptate (donor) for 1 h, the specific FRET signals were calculated by the fluorescence ratio of the acceptor and donor emission signal (665/620 nm) collected using a modified Infinite F500 (Tecan Group Ltd). Conversion of the HTRF ratio of each sample into IP1 concentrations was performed on the basis of a standard curve to determine the linear dynamic range of the assay.

[3] = G protein signaling, Fig. 4a, 1 min

Compound	G protein signaling, Ligand-modulated BRET (% of maximum MRS2179 mean value) ([1]; [Ligand] 1.00E-04 M)	G protein signaling, Ligand-modulated BRET (% of maximum MRS2179 mean value) ([1]; [Ligand] 1.00E-05 M)	G protein signaling, Ligand-modulated BRET (% of maximum MRS2179 mean value) ([1]; [Ligand] 1.00E-06 M)	G protein signaling, Ligand-modulated BRET (% of maximum MRS2179 mean value) ([1]; [Ligand] 1.00E-07 M)	G protein signaling, Ligand-modulated BRET (% of maximum MRS2179 mean value) ([1]; [Ligand] 1.00E-08 M)	G protein signaling, Ligand-modulated BRET (% of maximum MRS2179 mean value) ([1]; [Ligand] 1.00E-09 M)	G protein signaling, Ligand-modulated BRET (% of maximum MRS2179 mean value) ([1]; [Ligand] 1.00E-10 M)	EC50 [1, 3] [nM]	pEC50 ± s.e.m. [1, 3]	Emax ± s.e.m. ([1]; G protein signaling, Fig. 4a, 1 min, normalized to the mean value of maximal MRS2179 response, in %)	Behaviour on P2Y1-R-dependent constitutive Gαq protein activation ([1]; HEK293T cells, result in words)	Effect on IP1 levels [2]	ADP-induced change of Gαq/Gγ2 BRET signal ([1]; ADP 10 μM, 1 min, result in words)	ADP-modulated BRET ([1]; P2Y1-R, ADP 10 μM, 1 min, individual experiments)
CNc1nc(I)nc2c1ncn2[C@H]1C[C@H](OP(=O)(O)O)[C@]2(COP(=O)(O)O)C[C@H]12 [MRS2500, 2-iodo-N6-methyl-(N)-methanocarba-2′-deoxyadenosine-3′,5′-bisphosphate]	155.404 % of maximum MRS2179 mean value and 138.849 % of maximum MRS2179 mean value and 107.119 % of maximum MRS2179 mean value and 132.185 % of maximum MRS2179 mean value and 125.72 % of maximum MRS2179 mean value and 141.754 % of maximum MRS2179 mean value	122.914 % of maximum MRS2179 mean value and 111.352 % of maximum MRS2179 mean value and 93.6281 % of maximum MRS2179 mean value and 124.36 % of maximum MRS2179 mean value and 97.7584 % of maximum MRS2179 mean value and 107.998 % of maximum MRS2179 mean value	73.5711 % of maximum MRS2179 mean value and 80.459 % of maximum MRS2179 mean value and 53.1675 % of maximum MRS2179 mean value and 68.2708 % of maximum MRS2179 mean value and 52.8113 % of maximum MRS2179 mean value and 71.2103 % of maximum MRS2179 mean value	18.6255 % of maximum MRS2179 mean value and 25.6955 % of maximum MRS2179 mean value and 14.1554 % of maximum MRS2179 mean value and 20.945 % of maximum MRS2179 mean value and 1.4 % of maximum MRS2179 mean value and 18.5955 % of maximum MRS2179 mean value	1.081 % of maximum MRS2179 mean value and -4.947 % of maximum MRS2179 mean value and -10.1975 % of maximum MRS2179 mean value and -7.982 % of maximum MRS2179 mean value and -25.6775 % of maximum MRS2179 mean value and 3.691 % of maximum MRS2179 mean value	-4.558 % of maximum MRS2179 mean value and -14.6104 % of maximum MRS2179 mean value and -16.9372 % of maximum MRS2179 mean value and -9.323 % of maximum MRS2179 mean value and -17.5921 % of maximum MRS2179 mean value and 4.08 % of maximum MRS2179 mean value	-10.8256 % of maximum MRS2179 mean value and -10.2571 % of maximum MRS2179 mean value and -9.064 % of maximum MRS2179 mean value and -13.8903 % of maximum MRS2179 mean value and -18.6423 % of maximum MRS2179 mean value and -6.511 % of maximum MRS2179 mean value	772	6.113 ± 0.07237	127.2 ± 3.892	behaved as inverse agonists	inverse agonist efficacy	–	–
Nc1ncnc2c1ncn2[C@@H]1O[C@H](COP(=O)(O)OP(=O)(O)O)[C@@H](O)[C@H]1O [ADP, adenosine diphosphate]	–	–	–	–	–	–	–	–	–	–	–	significantly increased	significant but moderate decrease of the BRET signal	-0.02511 and -0.01906 and -0.00821 and -0.04045 and -0.02327 and -0.02843
